Consider one molecule from BindingDB's records for PubMed 32698113 (Sichuan University, 2020).

The structures appear in SMILES notation.

The test in a line: Inhibition of human neutrophil elastase activity assessed as reduction in […].

Regarding `COc1cc2c(c3c1CCC(c1ccccc1)O3)C1C3C(c4ccc(O)c(C)c4OC)C(C(O)(OC)c4ccccc4)C14C(C=CC(=O)C4OC)OC3(c1ccccc1)O2` (stereo unspecified), the IC50 was above 10 µM.

A word on the IC50: it is the concentration that gives 50% inhibition.
